Experiments:
A2780 = test: WST-1 cytotoxicity, 72 h; type: cell-based; conditions: for potency relative to cisplatin / IC50: A2780, 72 h; for IC50: mean ± SEM; for Selective cytotoxicity index (SCI): IC50 MCF10A/IC50 A2780
Method in brief: (§1)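 Cells were seeded at 1000 per well and exposed to compound for 72 h. Viability was then read with WST-1 (1 h, absorbance at 450 nm). Apparent IC50 values came from nonlinear regression of % survival across three experiments, each with n = 3.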

HT29 = test: WST-1 cytotoxicity, 72 h; type: cell-based; conditions: for potency relative to cisplatin / IC50: HT29, 72 h; for IC50: mean ± SEM; for Selective cytotoxicity index (SCI): IC50 MCF10A/IC50 HT29
Method in brief: as §1

MCF10A = test: WST-1 cytotoxicity, 72 h; type: cell-based; conditions: mean ± SEM
Method: Cells were seeded in 96-well flat-bottom culture plates at a concentration of 1000 cells per well. […] After 72 h, the medium was removed and replaced with new medium. The cell viability reagent WST-1 (10 µL, Roche Diagnostics, Indianapolis, IN, USA) was added to each well. After an hour, the absorbance was measured at 450 nm using a versatile microplate reader (Bio-strategy, Campbellfield, VIC, Australia). Three separate experiments were performed, each with n = 3 replicates. GraphPad prism 10 was used to calculate apparent IC50 values using the nonlinear regression model Y = Bottom + (Top-Bottom)/(1 + 10^(X-LogIC50)) where Top and bottom are plateaus in the y-axis (% survival). The R^2 value of the curve fits ranged from 0.8972 to 0.9794.

HT29 cells = test: Label-free quantitative proteomics; type: cell-based, Homo Sapiens; conditions: HT29, IC50, 72 h; for number of downregulated differentially expressed proteins / number of upregulated differentially expressed proteins: p < 0.05, fold change > 2
Method: (§2) The supernatant was then collected into 15 mL tubes, then the cells were washed with PBS and trypsinised. The detached cells were transferred to allocated tubes and centrifuged at 500× g for 5 min at 4 °C. Cell pellet was washed twice with PBS and then resuspended in 300 µL cell lysis buffer (RIPA) for 30 min on ice. Cell extracts were then centrifuged at 12,000× g for 15 min at 4 °C, and the supernatants (containing the proteins) were collected into Lo-Bind Eppendorf. The Bio-Rad protein assay (Bio-Rad, Hercules, CA, USA) was used to assess protein content. For protein extraction and delipidation 100 µL of the cell homogenate was moved to 1.7 mL Lo-Bind Eppendorf tubes and 450 µL methanol was added to the mixture and vortexed. Chloroform (150 µL) was next added and vortexed. Then, water (450 µL) was added to the mixture, vortexed and centrifuged for 5 min at 12,000× g, which formed the protein pellet at the organic/aqueous interface. The layer of chloroform was removed and then 400 µL of methanol was added. The sample was then vortexed and centrifuged at 12,000× g for 15 min. The supernatant was then aspirated and discarded. The pellet was then washed with methanol (400 µL). The supernatant was removed, and the pellets were air-dried overnight. Next, steps were performed for reduction, alkylation, and tryptic digestion of the protein. 0.1% RapiGest (Waters, Milford, MA, USA) in 50 mM aqueous ammonium bicarbonate (20 µL) was added to the air-dried pellet and vortexed for effective suspension. The pellet should completely dissolve. Then, 50 µL of 7 mM DTT in 50 mM aqueous ammonium bicarbonate was added, to give a final concentration of 5 mM DTT. Samples were then heated for 30 min at 60 °C and cooled to room temperature. Iodoacetamide (45 mM) in 50 mM aqueous ammonium bicarbonate was next added to give a concentration of 15 mM. The mixture was allowed to react in the dark for 30 min. Then, 10 ng/µL of Trypsin Gold, Mass spectrometry grade (Promega, NSW, Australia) was added for digestion to occur at room temperature overnight. And 50 µL of 4% (v/v) aqueous trifluoroacetic acid was then added to each tube. Samples were next heated for 45 min at 37 °C to effect decomposition of RapiGest. Samples were then centrifuged at 12,000× g for 10 min at 4 °C. Supernatants were then transferred to total recovery vials and run on a nanoAcquity Ultra-Performance Liquid Chromatography (UPLC) coupled with a Synapt G2-Si instrument (Waters, MA, USA) was used for label-free quantitative protein profiling. Nano-proteomics method is detailed in Method S1. Three independent experiments in triplicates were implemented, while all samples were analysed in a single run with a single injection (1 µL) for each trial. Mass spectrometry (MS) data were processed using Progenesis QI for proteomics (version 4.1, Nonlinear Dynamics, Newcastle upon Tyne, UK), and aligned using UniProt Homo Sapiens reference database IDEP9.6 utilised to cluster and retrieve the initial signature analyses. […] Enrichment studies were performed using gene lists that corresponded to the identified proteins. Overrepresentation analysis was performed based on Gene Ontology (GO) Biological Processes, GO Cellular Components, and GO Molecular Functions using iDEP. Enrichment maps and STRING apps were used to construct pathways networks and explore protein–protein interactions.

MDA−MB−231 cells = test: Label-free quantitative proteomics; type: cell-based, Homo Sapiens; conditions: MDA−MB−231, IC50, 72 h; for number of downregulated differentially expressed proteins / number of upregulated differentially expressed proteins: p < 0.05, fold change > 2
Method: as §2

SMILES	potency relative to cisplatin (A2780)	IC50 (A2780)	Selective cytotoxicity index (SCI) (A2780)	potency relative to cisplatin (HT29)	IC50 (HT29)	Selective cytotoxicity index (SCI) (HT29)	IC50 (MCF10A)	detected up and down differentially regulated proteins (HT29 cells)	number of downregulated differentially expressed proteins (MDA−MB−231 cells)	number of upregulated differentially expressed proteins (MDA−MB−231 cells)	DEPs exhibited by the treatment (UpSet plot) (HT29 cells)	number of downregulated differentially expressed proteins (HT29 cells)	number of upregulated differentially expressed proteins (HT29 cells)	DEPs exhibited by the treatment (UpSet plot) (MDA−MB−231 cells)
Cc1cc2cccnc2c2ncccc12.N[C@H]1CCCC[C@@H]1N.O=[N+]([O-])[O-].O=[N+]([O-])[O-].[OH][Pt+2][OH] [Pt^IV5MESS(OH)2, [Pt(5-methyl-1,10-phenanthroline)(1S,2S-diaminocyclohexane)(dihydroxy)](NO3)2]	10 fold	2140 ± 1380 nM	5.71	21 fold	3640 ± 1450 nM	3.36	12200 ± 1480 nM	3	33	38				
Cc1c(C)c2cccnc2c2ncccc12.N[C@H]1CCCC[C@@H]1N.O=[N+]([O-])[O-].O=[N+]([O-])[O-].[OH][Pt+2][OH] [Pt^IV56MESS(OH)2, [Pt(5,6-dimethyl-1,10-phenanthroline)(1S,2S-diaminocyclohexane)(dihydroxy)](NO3)2]	13 fold	1690 ± 1360 nM	2.90	62 fold	1250 ± 1380 nM	3.93	4910 ± 1450 nM	3	3	8				
Cc1cc2cccnc2c2ncccc12.N[C@H]1CCCC[C@@H]1N.O=[N+]([O-])[O-].O=[N+]([O-])[O-].[Pt+2] [Pt^II5MESS, [Pt(5-methyl-1,10-phenanthroline)(1S,2S-diaminocyclohexane)](NO3)2]	33 fold	650 ± 1710 nM	1.82	149 fold	550 ± 1420 nM	2.15	1180 ± 1750 nM		75	91	34	118	110	22
Cc1c(C)c2cccnc2c2ncccc12.N[C@H]1CCCC[C@@H]1N.O=[N+]([O-])[O-].O=[N+]([O-])[O-].[Pt+2] [Pt^II56MESS, [Pt(5,6-dimethyl-1,10-phenanthroline)(1S,2S-diaminocyclohexane)](NO3)2]	113 fold	190 nM	2.16	432 fold	180 nM	2.28	410 nM		183	132	225	228	200	165
N[C@H]1CCCC[C@@H]1N.O=[N+]([O-])[O-].O=[N+]([O-])[O-].[Pt+2].c1cnc2c(c1)ccc1cccnc12 [[Pt(1,10-phenanthroline)(1S,2S-diaminocyclohexane)](NO3)2]	19 fold	1110 ± 1880 nM	3.14	102 fold	760 ± 1470 nM	4.59	3490 ± 1390 nM		7	14		10	9	
N.N.[Cl][Pt][Cl] [Cisplatin, cisplatin]		21500 ± 1550 nM			77800 ± 1970 nM		4710 ± 1470 nM							
N[C@H]1CCCC[C@@H]1N.O=[N+]([O-])[O-].O=[N+]([O-])[O-].[OH-].[OH-].[Pt+4].c1cnc2c(c1)ccc1cccnc12 [[Pt(1,10-phenanthroline)(1S,2S-diaminocyclohexane)(dihydroxy)](NO3)2]	3 fold	6490 ± 1230 nM	3.15	17 fold	4480 ± 1770 nM	4.57	20500 ± 1320 nM	no detected differentials	5	9				

Source: PMC11274883, “Anticancer Effect of Pt^[sequence], Pt^II5MESS, Pt^II56MESS and Their Platinum(IV)-Dihydroxy Derivatives against Triple-Negative Breast Cancer and Cisplatin-Resistant Colorectal Cancer” (Cancers, 2024)
